One compound from patent publication US5352804A, “Isolation and structure of Halistatin 2” (Arizona Board of Regents, a body corporate, acting on …, priority 1993, dated 1994) can be followed below.

Where two headings read alike, the source gives them in different places.

One test concerns DMS 114. In words: NCI human tumor in vitro primary screen. The note with it: small cell lung cancer. The class given is cell-based.
The test system of the next test is DMS 273. In words: NCI human tumor in vitro primary screen. The class given is cell-based. The note with it: small cell lung cancer.
The mark [1] stands for this setting: read-out: Log10 GI50 (converted).
[2] abbreviates: read-out: Log10 TGI (converted).
The mark [3] stands for this setting: read-out: averaged negative log10 GI50 (converted).

As to `C=C1CC2CCC34CC5OC6C(O3)C3OC(CCC3OC6(O)C5O4)CC(=O)OC3C(CC4OC(CCC1O2)CC(C)C4=C)OC1CC2OC4(CC2OC1C3C)CC1OC2(CC(C)C3OC5CC(C(O)CO)OC5CC3O2)CC(C)C1O4` (stereo not drawn) [halistatin 2], the GI50 (usually the concentration giving 50% growth inhibition) with DMS 114 (setting [1]) was 0.339 nM; in the test on DMS 114 (setting [3]) it was 0.339 nM; with DMS 273 (setting [1]), 0.129 nM; in the test on DMS 273 (setting [3]), 0.129 nM. In addition, the values for the IC (TGI) with DMS 114 (setting [2]) and with DMS 273 (setting [2]) were 1.91 nM and 5.5 nM, respectively.
